ChEMBL document CHEMBL5696442, “Discovery of type II inhibitors of TGFβ-activated kinase 1 (TAK1) and mitogen-activated protein kinase kinase kinase kinase 2 (MAP4K2)” (J Med Chem, 2015)
Calls of active or inactive are those of the source. No cut-off for these calls is given here.

How the values were obtained:
[1] = target: Mitogen-activated protein kinase kinase kinase kinase 4 (Homo sapiens, UniProt O95819); assay: Inhibition of ZC1/HGK Lys2 labeling site in human Huh-7 cells at 1 uM by KiNativ Profiling analysis relative to control; type: cell-based
[2] = target: T1, Serine/threonine-protein kinase LATS1 (Homo sapiens) (UniProt O95835); assay: Inhibition of LATS1 (unknown origin) at 1 uM by Ambit Kinomescan binding assay relative to control
T1 sequence (whole entry): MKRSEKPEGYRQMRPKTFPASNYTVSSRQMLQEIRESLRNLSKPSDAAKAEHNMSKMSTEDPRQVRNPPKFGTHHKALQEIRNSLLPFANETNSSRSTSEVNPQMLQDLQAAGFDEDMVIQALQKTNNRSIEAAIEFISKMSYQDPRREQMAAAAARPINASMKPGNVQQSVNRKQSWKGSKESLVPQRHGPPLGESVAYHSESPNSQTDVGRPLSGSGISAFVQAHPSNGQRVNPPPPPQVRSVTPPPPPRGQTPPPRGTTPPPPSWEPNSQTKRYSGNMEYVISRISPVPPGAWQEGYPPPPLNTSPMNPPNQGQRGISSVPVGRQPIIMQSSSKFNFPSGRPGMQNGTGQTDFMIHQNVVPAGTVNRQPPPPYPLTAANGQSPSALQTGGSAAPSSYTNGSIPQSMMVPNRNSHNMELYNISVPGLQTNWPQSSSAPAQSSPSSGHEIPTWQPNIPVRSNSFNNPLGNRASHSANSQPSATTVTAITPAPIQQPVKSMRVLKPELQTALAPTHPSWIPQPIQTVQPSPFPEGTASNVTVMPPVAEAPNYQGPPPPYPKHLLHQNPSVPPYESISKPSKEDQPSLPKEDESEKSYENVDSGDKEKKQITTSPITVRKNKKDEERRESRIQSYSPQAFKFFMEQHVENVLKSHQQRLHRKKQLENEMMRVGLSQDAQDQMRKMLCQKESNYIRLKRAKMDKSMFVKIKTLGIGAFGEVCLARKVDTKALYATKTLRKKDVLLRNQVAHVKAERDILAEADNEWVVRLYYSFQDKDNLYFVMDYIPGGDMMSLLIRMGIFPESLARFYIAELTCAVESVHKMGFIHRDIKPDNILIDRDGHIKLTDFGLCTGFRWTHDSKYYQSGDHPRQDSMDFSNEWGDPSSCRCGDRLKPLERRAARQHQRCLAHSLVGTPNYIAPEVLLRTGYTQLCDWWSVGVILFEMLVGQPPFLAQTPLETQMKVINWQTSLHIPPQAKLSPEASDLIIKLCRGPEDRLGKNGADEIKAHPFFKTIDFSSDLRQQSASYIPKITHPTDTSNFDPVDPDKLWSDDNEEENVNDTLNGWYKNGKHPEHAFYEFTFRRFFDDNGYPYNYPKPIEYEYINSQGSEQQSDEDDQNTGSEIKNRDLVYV

[3] = target: Cyclin-dependent kinase 11B (Homo sapiens) (UniProt P21127); assay: Inhibition of CDC2L1 (unknown origin) at 1 uM by Ambit Kinomescan binding assay relative to control
[4] = target: T2, Dual specificity mitogen-activated protein kinase kinase 5 (Homo sapiens) (UniProt Q13163); assay: Inhibition of MEK5 (unknown origin) at 1 uM by Ambit Kinomescan binding assay relative to control; values are per cent of control
T2 sequence (whole entry): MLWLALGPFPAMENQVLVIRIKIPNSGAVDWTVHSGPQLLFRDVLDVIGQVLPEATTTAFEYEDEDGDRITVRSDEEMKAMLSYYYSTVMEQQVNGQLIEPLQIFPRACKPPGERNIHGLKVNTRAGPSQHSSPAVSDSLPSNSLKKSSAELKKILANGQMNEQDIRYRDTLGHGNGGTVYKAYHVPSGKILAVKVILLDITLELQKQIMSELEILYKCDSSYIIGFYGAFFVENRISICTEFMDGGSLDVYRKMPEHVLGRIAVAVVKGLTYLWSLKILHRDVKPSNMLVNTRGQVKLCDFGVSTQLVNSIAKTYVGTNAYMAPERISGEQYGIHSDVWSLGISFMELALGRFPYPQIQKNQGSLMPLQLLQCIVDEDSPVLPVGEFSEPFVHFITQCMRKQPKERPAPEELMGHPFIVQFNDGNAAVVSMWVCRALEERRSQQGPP

[5] = test system: Epidermal growth factor receptor (Homo sapiens), P00533 [G719C]; assay: Inhibition of EGFR G719C mutant (unknown origin) at 1 uM by Ambit Kinomescan binding assay relative to control
[6] = target: TGF-beta receptor type-1 (Homo sapiens) (UniProt P36897); assay: Inhibition of TGFBR1 (unknown origin) at 1 uM by Ambit Kinomescan binding assay relative to control
[7] = target: Uncharacterized serine/threonine-protein kinase SBK3 (Homo sapiens) (UniProt P0C264); assay: Inhibition of SgK110 (unknown origin) at 10 uM by Ambit Kinomescan binding assay
[8] = target: T3, Serine/threonine-protein kinase Sgk3 (Homo sapiens) (UniProt Q96BR1); assay: Inhibition of SGK3 Lys1 labeling site in human A-375 cells at 0.5 uM by KiNativ Profiling analysis relative to control; type: cell-based
T3 sequence (whole entry): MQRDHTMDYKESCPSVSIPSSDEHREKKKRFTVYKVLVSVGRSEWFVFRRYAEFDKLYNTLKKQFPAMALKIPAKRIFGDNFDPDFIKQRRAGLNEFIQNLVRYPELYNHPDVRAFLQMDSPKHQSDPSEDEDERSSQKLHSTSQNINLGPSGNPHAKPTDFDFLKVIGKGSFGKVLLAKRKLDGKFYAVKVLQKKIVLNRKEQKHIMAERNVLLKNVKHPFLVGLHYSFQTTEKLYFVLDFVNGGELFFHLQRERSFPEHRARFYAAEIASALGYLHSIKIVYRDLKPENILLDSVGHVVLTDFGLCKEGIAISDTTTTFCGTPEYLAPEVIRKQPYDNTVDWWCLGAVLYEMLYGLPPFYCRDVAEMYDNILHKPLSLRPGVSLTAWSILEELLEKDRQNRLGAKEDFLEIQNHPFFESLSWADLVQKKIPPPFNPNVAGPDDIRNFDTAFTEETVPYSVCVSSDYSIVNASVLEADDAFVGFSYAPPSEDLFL

[9] = target: Serine/threonine-protein kinase Nek2 (Homo sapiens) (UniProt P51955); assay: Inhibition of NEK2 (unknown origin) at 10 uM by Ambit Kinomescan binding assay
[10] = target: Misshapen-like kinase 1 (Homo sapiens) (UniProt Q8N4C8); assay: Inhibition of ZC3/MINK K2 labeling site in human Huh-7 cells at 10 uM by KiNativ Profiling analysis relative to control; type: cell-based
[11] = target: Misshapen-like kinase 1 (Homo sapiens) (UniProt Q8N4C8); assay: Inhibition of ZC3 Lys2 labeling site in human A-375 cells at 5 uM by KiNativ Profiling analysis relative to control; type: cell-based
[12] = target: Interferon-induced, double-stranded RNA-activated protein kinase (Homo sapiens) (UniProt P19525); assay: Inhibition of PKR ACT labeling site in human Huh-7 cells at 1 uM by KiNativ Profiling analysis relative to control; type: cell-based
Interferon-induced, double-stranded RNA-activated protein kinase (Homo sapiens), sequence (P19525 whole entry): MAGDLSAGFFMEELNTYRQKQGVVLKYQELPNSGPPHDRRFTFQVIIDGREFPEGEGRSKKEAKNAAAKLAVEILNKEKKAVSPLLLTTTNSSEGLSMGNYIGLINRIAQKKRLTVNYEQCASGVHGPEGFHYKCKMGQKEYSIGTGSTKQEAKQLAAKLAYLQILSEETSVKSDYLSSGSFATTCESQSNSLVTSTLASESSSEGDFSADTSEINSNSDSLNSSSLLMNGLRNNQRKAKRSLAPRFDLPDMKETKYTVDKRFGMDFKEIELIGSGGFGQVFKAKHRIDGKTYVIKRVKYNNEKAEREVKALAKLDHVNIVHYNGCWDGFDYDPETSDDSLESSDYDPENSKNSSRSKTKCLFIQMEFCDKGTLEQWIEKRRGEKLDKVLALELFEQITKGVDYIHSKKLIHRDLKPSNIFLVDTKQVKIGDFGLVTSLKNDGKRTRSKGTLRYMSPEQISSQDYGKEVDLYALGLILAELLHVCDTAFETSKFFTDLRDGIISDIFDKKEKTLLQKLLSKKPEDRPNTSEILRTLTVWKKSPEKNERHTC

Misshapen-like kinase 1 (Homo sapiens), sequence (Q8N4C8 whole entry, looked up): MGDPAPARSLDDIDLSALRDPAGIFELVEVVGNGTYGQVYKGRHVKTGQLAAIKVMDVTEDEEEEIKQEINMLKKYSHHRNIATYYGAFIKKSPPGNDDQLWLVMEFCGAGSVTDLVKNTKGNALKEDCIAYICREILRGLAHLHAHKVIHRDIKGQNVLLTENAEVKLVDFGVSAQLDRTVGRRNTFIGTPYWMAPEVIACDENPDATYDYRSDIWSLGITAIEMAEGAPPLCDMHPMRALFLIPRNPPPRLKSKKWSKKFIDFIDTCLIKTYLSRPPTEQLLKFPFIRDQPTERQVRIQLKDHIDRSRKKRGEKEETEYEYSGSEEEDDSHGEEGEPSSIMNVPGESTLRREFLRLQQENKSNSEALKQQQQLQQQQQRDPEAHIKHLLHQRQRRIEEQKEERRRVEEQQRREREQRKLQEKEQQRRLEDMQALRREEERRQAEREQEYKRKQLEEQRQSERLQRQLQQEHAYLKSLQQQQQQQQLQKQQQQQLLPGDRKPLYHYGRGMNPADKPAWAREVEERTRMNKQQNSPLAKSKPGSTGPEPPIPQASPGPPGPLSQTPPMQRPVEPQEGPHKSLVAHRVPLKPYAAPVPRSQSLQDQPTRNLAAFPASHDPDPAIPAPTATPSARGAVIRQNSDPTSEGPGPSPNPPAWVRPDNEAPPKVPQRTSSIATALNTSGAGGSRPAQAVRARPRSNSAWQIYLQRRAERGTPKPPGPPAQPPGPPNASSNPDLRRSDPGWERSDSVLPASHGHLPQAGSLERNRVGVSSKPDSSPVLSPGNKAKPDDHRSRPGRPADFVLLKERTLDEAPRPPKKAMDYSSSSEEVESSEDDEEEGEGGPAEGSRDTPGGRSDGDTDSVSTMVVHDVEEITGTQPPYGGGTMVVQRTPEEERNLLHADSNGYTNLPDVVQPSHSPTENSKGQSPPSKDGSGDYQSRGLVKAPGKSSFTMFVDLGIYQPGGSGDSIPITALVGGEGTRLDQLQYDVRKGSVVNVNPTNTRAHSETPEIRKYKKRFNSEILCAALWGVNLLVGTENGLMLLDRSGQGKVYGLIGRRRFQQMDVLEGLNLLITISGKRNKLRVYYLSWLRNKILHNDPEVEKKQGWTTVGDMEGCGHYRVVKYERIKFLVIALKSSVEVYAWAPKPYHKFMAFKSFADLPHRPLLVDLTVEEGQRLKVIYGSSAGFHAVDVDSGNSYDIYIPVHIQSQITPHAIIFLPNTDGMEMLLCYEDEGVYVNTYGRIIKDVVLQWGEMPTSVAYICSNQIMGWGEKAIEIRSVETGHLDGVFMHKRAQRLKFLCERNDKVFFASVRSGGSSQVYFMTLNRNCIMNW
Serine/threonine-protein kinase Nek2 (Homo sapiens), sequence (P51955 whole entry): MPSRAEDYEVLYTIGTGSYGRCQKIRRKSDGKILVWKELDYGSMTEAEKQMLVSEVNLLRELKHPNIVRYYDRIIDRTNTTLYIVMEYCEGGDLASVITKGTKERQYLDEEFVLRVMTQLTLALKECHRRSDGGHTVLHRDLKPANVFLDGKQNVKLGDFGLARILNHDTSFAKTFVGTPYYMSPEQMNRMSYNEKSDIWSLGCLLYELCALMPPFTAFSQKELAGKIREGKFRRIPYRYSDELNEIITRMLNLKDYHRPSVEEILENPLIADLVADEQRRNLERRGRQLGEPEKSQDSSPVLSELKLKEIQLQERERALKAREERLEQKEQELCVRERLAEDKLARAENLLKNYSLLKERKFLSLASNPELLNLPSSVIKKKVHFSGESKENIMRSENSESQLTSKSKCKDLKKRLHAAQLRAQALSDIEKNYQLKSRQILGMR
Uncharacterized serine/threonine-protein kinase SBK3 (Homo sapiens), sequence (P0C264 whole entry): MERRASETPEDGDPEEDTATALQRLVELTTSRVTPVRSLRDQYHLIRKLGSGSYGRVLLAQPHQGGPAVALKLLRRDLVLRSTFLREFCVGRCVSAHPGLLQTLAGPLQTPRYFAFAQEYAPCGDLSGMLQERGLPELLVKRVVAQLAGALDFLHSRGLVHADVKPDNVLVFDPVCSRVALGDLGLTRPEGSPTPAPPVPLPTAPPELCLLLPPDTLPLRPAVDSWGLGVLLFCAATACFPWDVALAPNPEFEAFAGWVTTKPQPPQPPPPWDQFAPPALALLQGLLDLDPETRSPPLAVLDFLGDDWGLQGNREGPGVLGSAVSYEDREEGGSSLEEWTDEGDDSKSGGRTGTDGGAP
Cyclin-dependent kinase 11B (Homo sapiens), sequence (P21127 whole entry): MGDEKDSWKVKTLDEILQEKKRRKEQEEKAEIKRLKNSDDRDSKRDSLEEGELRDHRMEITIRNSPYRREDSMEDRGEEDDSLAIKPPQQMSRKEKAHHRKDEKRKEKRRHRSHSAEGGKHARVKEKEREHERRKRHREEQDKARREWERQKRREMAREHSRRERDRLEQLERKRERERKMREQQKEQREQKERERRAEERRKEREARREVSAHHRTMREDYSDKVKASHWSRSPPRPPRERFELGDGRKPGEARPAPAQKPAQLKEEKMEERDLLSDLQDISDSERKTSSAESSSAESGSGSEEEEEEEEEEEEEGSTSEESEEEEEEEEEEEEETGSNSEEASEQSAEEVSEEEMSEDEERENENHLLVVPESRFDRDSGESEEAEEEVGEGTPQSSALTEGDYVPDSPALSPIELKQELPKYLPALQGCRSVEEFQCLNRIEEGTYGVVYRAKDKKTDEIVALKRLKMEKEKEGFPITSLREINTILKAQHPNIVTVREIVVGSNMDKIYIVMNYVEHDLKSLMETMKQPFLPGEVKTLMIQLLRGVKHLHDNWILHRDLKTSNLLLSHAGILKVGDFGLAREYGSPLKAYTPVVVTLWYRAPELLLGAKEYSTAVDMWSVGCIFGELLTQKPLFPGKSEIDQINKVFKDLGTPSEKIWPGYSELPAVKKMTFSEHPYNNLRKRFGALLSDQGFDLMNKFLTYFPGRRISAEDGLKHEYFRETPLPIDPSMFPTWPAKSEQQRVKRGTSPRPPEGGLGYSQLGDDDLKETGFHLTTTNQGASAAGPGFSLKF
Mitogen-activated protein kinase kinase kinase kinase 4, sequence (O95819 2-1239 limits assumed): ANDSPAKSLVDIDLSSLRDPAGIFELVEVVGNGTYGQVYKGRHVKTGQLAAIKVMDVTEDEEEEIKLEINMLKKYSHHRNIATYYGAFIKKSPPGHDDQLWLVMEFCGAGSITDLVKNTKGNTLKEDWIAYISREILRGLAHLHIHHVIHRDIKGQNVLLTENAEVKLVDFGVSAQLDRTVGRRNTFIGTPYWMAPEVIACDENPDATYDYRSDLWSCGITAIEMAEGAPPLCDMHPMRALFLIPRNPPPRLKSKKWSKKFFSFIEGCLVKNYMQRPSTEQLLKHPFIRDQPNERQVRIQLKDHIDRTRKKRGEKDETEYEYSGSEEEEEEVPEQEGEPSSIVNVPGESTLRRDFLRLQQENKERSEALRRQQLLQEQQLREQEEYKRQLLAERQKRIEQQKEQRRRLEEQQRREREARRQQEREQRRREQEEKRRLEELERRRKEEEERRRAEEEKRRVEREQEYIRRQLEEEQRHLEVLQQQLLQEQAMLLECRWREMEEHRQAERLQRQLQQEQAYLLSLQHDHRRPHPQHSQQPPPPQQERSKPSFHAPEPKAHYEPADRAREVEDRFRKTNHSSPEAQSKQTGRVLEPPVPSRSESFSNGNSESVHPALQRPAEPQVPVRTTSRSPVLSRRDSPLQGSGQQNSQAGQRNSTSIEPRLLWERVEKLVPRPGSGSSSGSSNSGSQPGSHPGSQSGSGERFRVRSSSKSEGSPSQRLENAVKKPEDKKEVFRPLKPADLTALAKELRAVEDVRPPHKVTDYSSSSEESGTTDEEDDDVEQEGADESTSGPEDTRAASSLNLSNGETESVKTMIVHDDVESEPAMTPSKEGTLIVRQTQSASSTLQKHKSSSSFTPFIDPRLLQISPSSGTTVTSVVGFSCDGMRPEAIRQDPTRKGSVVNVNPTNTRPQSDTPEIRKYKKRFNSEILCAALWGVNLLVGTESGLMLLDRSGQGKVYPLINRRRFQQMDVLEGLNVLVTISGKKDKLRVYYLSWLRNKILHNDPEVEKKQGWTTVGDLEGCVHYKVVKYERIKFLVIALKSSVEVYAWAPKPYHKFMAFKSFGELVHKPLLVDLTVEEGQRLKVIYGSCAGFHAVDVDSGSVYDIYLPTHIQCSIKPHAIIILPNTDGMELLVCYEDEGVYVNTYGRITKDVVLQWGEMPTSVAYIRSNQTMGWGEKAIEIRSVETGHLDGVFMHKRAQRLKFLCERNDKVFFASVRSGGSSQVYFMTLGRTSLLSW

CNc1cc(Oc2cc(C(=O)Nc3cc(N4CCN(C)CC4)cc(C(F)(F)F)c3)ccc2C)ncn1
inhibition [1]: 9.7%

CCN1CCN(Cc2ccc(NC(=O)c3ccc(C)c(/C=C/c4cnc5[nH]ccc5c4OC)c3)cc2C(F)(F)F)CC1
inhibition [2]: 80%
inhibition [3]: 61%
residual activity [4]: 1.4%
inhibition [5]: 0.45%
inhibition [6]: 100%

CCN1CCN(Cc2ccc(NC(=O)c3ccc(C)c(Oc4ccnc5[nH]ccc45)c3)cc2C(F)(F)F)CC1
inhibition [7]: inactive
inhibition [8]: -9.6%
inhibition [9]: inactive
inhibition [10]: 72.6%
inhibition [11]: 92.7%
inhibition [12]: 48.5%
